{"source": "patent US20170312205A1", "about": "“USE OF ESTERS OF N-ACYLATED DERIVATIVES OF AMINO ACIDS AND POLYOLS AS AN ANTI-AGEING AGENT FOR HUMAN SKIN” (SOCIETE D'EXPLOITATION DE PRODUITS POUR LES INDUSTRIES …, priority 2014, published 2017)", "tested_on": "normal human fibroblasts", "test": "in vitro study of migration of human fibroblasts (Oris migration plates, Calcein AM labeling)", "format": "cell-based", "settings": "for mean migration distance of the cells (Dmigr): 40 hours incubation at 37° C., mitomycin C pretreated, quadruplicate; for [(Dmigr) − (Dmigr)control]/(Dmigr)control (percentage of migratory effect relative to the control): 40 hours incubation, vs FCS culture control", "excerpt": "The fibroblast migration test is a test commonly used in the cosmetics and pharmaceutical sector and is especially described in the international patent application published under the number WO 2010/056908 A1. It allows in vitro reproduction of the phenomenon of fibroblast migration; a decrease in the migratory capacities of the fibroblasts being reported as associated with aging of the skin (1) (4).\nNormal human fibroblasts at the R5 passage were amplified in a T75 culture flask and then inoculated at 25 000 cells/well in specific culture plates. These plates are dedicated to migration (Oris™ from Platypus), integrating a central zone without initial deposition of cells (stoppers). After 96 hours of plate amplification and 2 hours before the treatment, all the wells were treated with mitomycin C (2 hours at […]), so as to stop the cell proliferation, and thus to observe only the migration phenomenon. The stoppers were removed, and the references, the products or standard medium for fibroblasts containing 2% fetal calf serum (FCS) were applied to the cells under 100 μl, and then incubated for 40 hours at 37° C. under 5% CO2. Each condition was performed in quadruplicate.\nOn conclusion of the incubation, the cells were labeled with Calcein AM (5 μM, 20 minutes at 37° C.), so as to visualize the viable cells by fluorescence (revelation of the cytoplasm). Photos were taken, after having inserted a black screen under the culture plates, so as to visualize only the zone where the cells were not deposited. Thus, only the cells which had migrated were photographed (×4 objective lens; with a ×0.7 reducer on the camera adapter). The mean migration distance of the cells (Dmigr) was measured with NIS-Elements-BR 3.0 (4 cells). The means and standard deviations of the distances were calculated on the quadruplicates. The percentages of migratory effect relative to the control, and also the statistics (Student test) were also calculated."}
{"substance": "Epidermal Growth Factor [Epidermal Growth Factor (EGF)]", "values": [{"measurement": "mean migration distance of the cells (Dmigr)", "setting": "EGF 10 ng/ml", "value": "203 ± 20", "unit": "μm"}, {"measurement": "[(Dmigr) − (Dmigr)control]/(Dmigr)control (percentage of migratory effect relative to the control)", "setting": "EGF 10 ng/ml", "value": "+21%"}, {"measurement": "mean migration distance of the cells (Dmigr)", "setting": "EGF 50 ng/ml", "value": "212 ± 8", "unit": "μm"}, {"measurement": "[(Dmigr) − (Dmigr)control]/(Dmigr)control (percentage of migratory effect relative to the control)", "setting": "EGF 50 ng/ml", "value": "+26%"}, {"measurement": "migration distance of the fibroblasts (result in words)", "setting": "EGF at 10 and 50 ng/ml with normal human fibroblasts, validates the model", "value": "increase in the migration distance"}]}
